Measured values as given in patent US20110200992A1, “Biological Compositions, Articles and Methods for Monitoring Sterilization Processes” (priority 2008, published 2011).

Assays:
[1] = system: Gb. stearothermophilus spores on a polypropylene carrier; assay: Change in fluorescence of biological indicators after lethal and sub-lethal sterilization cycles (Example 4); format: cell-based; settings: 485/530 nm, 1×E5 spores, 1:5000 dye, incubated 50° C.
Protocol: Eighty biological indicators (BIs) were prepared by coating a suspension of Gb. stearothermophilus spores at a concentration of 1×E5 on a polypropylene carrier. Following drying at 37° C. for 20 min, the BIs were exposed to commonly used sterilization conditions as described below in Tables 4a, 4b, and 4c. Following sterilization the BIs were activated with a medium, exposed to the same sterilization conditions as the spores and containing of a 1:5000 dilution of Acridine Orange along with glucose, fructose, and potassium chloride in water (1 mg/ml, 1 mg/ml, and 3.3 mgs/ml, respectively), 0.02 M alanine, 0.01 M valine, 0.002 M isoleucine, 0.2 mg/ml inosine, and a small amount of Bromo Cresol Purple. The combination of the medium with the spores on the carrier, subjected to lethal and sub-lethal sterilization processes shown in Tables 4a-4c, was incubated at 50° C. for 60 min, and fluorescence intensity readings were taken at 30 and 60 min using excitation at 485 nm and emission at 530 nm.

spores = assay: Fluorescence over a range of dye concentrations with decreasing concentrations of spores (Example 5); format: cell-based, Gb. stearothermophilus; settings: for Fluorescence intensity (normalized): ex 485/em 530 nm, 50° C.
Protocol: Dilutions were prepared using Sterile Water For Irrigation (Baxter, Deerfield, Ill.) and tested at a final population ranging between of 1×10^6 and 0 spores. The spore dilutions (100 microlitres) were combined with 200 microlitres of medium, consisting of Acridine Orange and nutrients as described in Example 1, with Acridine Orange concentrations at 1:5000 (0.0066 mM), 1:1000 (0.033 mM) and 1:500 (0.066 mM), each of the resulting mixtures was added to a well of a plate. The plate was subsequently placed in a preheated plate reader (BioTek Synergy 4 plate reader, Winooski, Vt.) at 50° C. and incubated for 60 min, during which fluorescence intensity readings were taken using excitation at 485 nm and emission at 530 nm. A summary of the normalized data is listed below in Table 5a-5c.

[2] = 1 min in 132° C. (270° F.) Gravity Cycle, AMSCO EAGLE Model 2013 Steam Sterilizer
[3] = 1 min in 132° C. (270° F.) Vacuum Assisted Cycle, Joslyn BIER Vessel
[4] = 3 min in 132° C. (270° F.) Gravity Cycle, AMSCO EAGLE Model 2013 Steam Sterilizer
[5] = 3 min in 132° C. (270° F.) Vacuum Assisted Cycle, Joslyn BIER Vessel
[6] = 5 min in 121° C. (250° F.) Vacuum Assisted Cycle, Joslyn BIER Vessel
[7] = 15 min in 121° C. (250° F.) Vacuum Assisted Cycle, Joslyn BIER Vessel

`CN(C)c1ccc2cc3ccc(N(C)C)cc3nc2c1` [Acridine Orange] was tested, and the “Average Change in Fluorescence at 30 min” value [1, 2] was 1462, the “Average Change in Fluorescence at 60 min” value [1, 2] was 1808 and the “Average Change in Fluorescence at 30 min” value [1, 3] was 2607. For the same compound, the “Average Change in Fluorescence at 60 min” value [1, 3] was 2762, the “Average Change in Fluorescence at 30 min” value [1, 4] was 201 and the “Average Change in Fluorescence at 60 min” value [1, 4] was 22. The “Average Change in Fluorescence at 30 min” value [1, 5] was 279, the “Average Change in Fluorescence at 60 min” value [1, 5] was 386 and the “Average Change in Fluorescence at 30 min” value [1, 6] was 2774. The “Average Change in Fluorescence at 60 min” value [1, 6] was 3347, the “Average Change in Fluorescence at 30 min” value [1, 7] was 383 and the “Average Change in Fluorescence at 60 min” value [1, 7] was 353. The “Dependence of signal on dye concentration” value (spores; 0.0066, 0.033, 0.066 mM) was “the higher the signal”, the “Detection of spores (lowest spore population shown)” value (spores; all Acridine Orange concentrations (0.0066, 0.033, 0.066 mM)) was “Detection of E3 spores was shown” and the “Fluorescence intensity (normalized)” value (spores; dye 0.0066 mM with nutrients, 0 spores, 0:00:00) was 0. For the same compound, the “Fluorescence intensity (normalized)” value (spores; dye 0.0066 mM with nutrients, 0 spores, 0:15:00) was 711, the “Fluorescence intensity (normalized)” value (spores; dye 0.0066 mM with nutrients, 0 spores, 0:30:00) was 886.5 and the “Fluorescence intensity (normalized)” value (spores; dye 0.0066 mM with nutrients, 0 spores, 0:45:00) was 1027. The “Fluorescence intensity (normalized)” value (spores; dye 0.0066 mM with nutrients, 0 spores, 1:00:00) was 1147.5, the “Fluorescence intensity (normalized)” value (spores; dye 0.0066 mM with nutrients, E3 spores, 0:00:00) was 0 and the “Fluorescence intensity (normalized)” value (spores; dye 0.0066 mM with nutrients, E3 spores, 0:15:00) was 2033. For the same compound, the “Fluorescence intensity (normalized)” value (spores; dye 0.0066 mM with nutrients, E3 spores, 0:30:00) was 2271.5, the “Fluorescence intensity (normalized)” value (spores; dye 0.0066 mM with nutrients, E3 spores, 0:45:00) was 2396 and the “Fluorescence intensity (normalized)” value (spores; dye 0.0066 mM with nutrients, E3 spores, 1:00:00) was 2484.5. For the same compound, the “Fluorescence intensity (normalized)” value (spores; dye 0.0066 mM with nutrients, E4 spores, 0:00:00) was 0, the “Fluorescence intensity (normalized)” value (spores; dye 0.0066 mM with nutrients, E4 spores, 0:15:00) was 3754.5 and the “Fluorescence intensity (normalized)” value (spores; dye 0.0066 mM with nutrients, E4 spores, 0:30:00) was 4088. The “Fluorescence intensity (normalized)” value (spores; dye 0.0066 mM with nutrients, E4 spores, 0:45:00) was 4174, the “Fluorescence intensity (normalized)” value (spores; dye 0.0066 mM with nutrients, E4 spores, 1:00:00) was 4268 and the “Fluorescence intensity (normalized)” value (spores; dye 0.0066 mM with nutrients, E5 spores, 0:00:00) was 0. The “Fluorescence intensity (normalized)” value (spores; dye 0.0066 mM with nutrients, E5 spores, 0:15:00) was 5224, the “Fluorescence intensity (normalized)” value (spores; dye 0.0066 mM with nutrients, E5 spores, 0:30:00) was 5364 and the “Fluorescence intensity (normalized)” value (spores; dye 0.0066 mM with nutrients, E5 spores, 0:45:00) was 5373. For the same compound, the “Fluorescence intensity (normalized)” value (spores; dye 0.0066 mM with nutrients, E5 spores, 1:00:00) was 5406, the “Fluorescence intensity (normalized)” value (spores; dye 0.0066 mM with nutrients, E6 spores, 0:00:00) was 0 and the “Fluorescence intensity (normalized)” value (spores; dye 0.0066 mM with nutrients, E6 spores, 0:15:00) was 12024.5. For the same compound, the “Fluorescence intensity (normalized)” value (spores; dye 0.0066 mM with nutrients, E6 spores, 0:30:00) was 15320, the “Fluorescence intensity (normalized)” value (spores; dye 0.0066 mM with nutrients, E6 spores, 0:45:00) was 16514.5 and the “Fluorescence intensity (normalized)” value (spores; dye 0.0066 mM with nutrients, E6 spores, 1:00:00) was 17130.5. The “Fluorescence intensity (normalized)” value (spores; dye 0.033 mM with nutrients, 0 spores, 0:00:00) was 0, the “Fluorescence intensity (normalized)” value (spores; dye 0.033 mM with nutrients, 0 spores, 0:15:00) was 740 and the “Fluorescence intensity (normalized)” value (spores; dye 0.033 mM with nutrients, 0 spores, 0:30:00) was 958. The “Fluorescence intensity (normalized)” value (spores; dye 0.033 mM with nutrients, 0 spores, 0:45:00) was 1143.5, the “Fluorescence intensity (normalized)” value (spores; dye 0.033 mM with nutrients, 0 spores, 1:00:00) was 1280 and the “Fluorescence intensity (normalized)” value (spores; dye 0.033 mM with nutrients, E3 spores, 0:00:00) was 0. For the same compound, the “Fluorescence intensity (normalized)” value (spores; dye 0.033 mM with nutrients, E3 spores, 0:15:00) was 2022.5, the “Fluorescence intensity (normalized)” value (spores; dye 0.033 mM with nutrients, E3 spores, 0:30:00) was 2281 and the “Fluorescence intensity (normalized)” value (spores; dye 0.033 mM with nutrients, E3 spores, 0:45:00) was 2437. The “Fluorescence intensity (normalized)” value (spores; dye 0.033 mM with nutrients, E3 spores, 1:00:00) was 2558.5, the “Fluorescence intensity (normalized)” value (spores; dye 0.033 mM with nutrients, E4 spores, 0:00:00) was 0 and the “Fluorescence intensity (normalized)” value (spores; dye 0.033 mM with nutrients, E4 spores, 0:15:00) was 3467. For the same compound, the “Fluorescence intensity (normalized)” value (spores; dye 0.033 mM with nutrients, E4 spores, 0:30:00) was 3640.5, the “Fluorescence intensity (normalized)” value (spores; dye 0.033 mM with nutrients, E4 spores, 0:45:00) was 3724 and the “Fluorescence intensity (normalized)” value (spores; dye 0.033 mM with nutrients, E4 spores, 1:00:00) was 3810.5. For the same compound, the “Fluorescence intensity (normalized)” value (spores; dye 0.033 mM with nutrients, E5 spores, 0:00:00) was 0, the “Fluorescence intensity (normalized)” value (spores; dye 0.033 mM with nutrients, E5 spores, 0:15:00) was 5012 and the “Fluorescence intensity (normalized)” value (spores; dye 0.033 mM with nutrients, E5 spores, 0:30:00) was 5029. For the same compound, the “Fluorescence intensity (normalized)” value (spores; dye 0.033 mM with nutrients, E5 spores, 0:45:00) was 4999, the “Fluorescence intensity (normalized)” value (spores; dye 0.033 mM with nutrients, E5 spores, 1:00:00) was 5068 and the “Fluorescence intensity (normalized)” value (spores; dye 0.033 mM with nutrients, E6 spores, 0:00:00) was 0. The “Fluorescence intensity (normalized)” value (spores; dye 0.033 mM with nutrients, E6 spores, 0:15:00) was 14427.5, the “Fluorescence intensity (normalized)” value (spores; dye 0.033 mM with nutrients, E6 spores, 0:30:00) was 19073.5 and the “Fluorescence intensity (normalized)” value (spores; dye 0.033 mM with nutrients, E6 spores, 0:45:00) was 20802.5. The “Fluorescence intensity (normalized)” value (spores; dye 0.033 mM with nutrients, E6 spores, 1:00:00) was 21688, the “Fluorescence intensity (normalized)” value (spores; dye 0.066 mM with nutrients, 0 spores, 0:00:00) was 0.0 and the “Fluorescence intensity (normalized)” value (spores; dye 0.066 mM with nutrients, 0 spores, 0:15:00) was 815.5. For the same compound, the “Fluorescence intensity (normalized)” value (spores; dye 0.066 mM with nutrients, 0 spores, 0:30:00) was 1026.0, the “Fluorescence intensity (normalized)” value (spores; dye 0.066 mM with nutrients, 0 spores, 0:45:00) was 1184.5 and the “Fluorescence intensity (normalized)” value (spores; dye 0.066 mM with nutrients, 0 spores, 1:00:00) was 1287.5. For the same compound, the “Fluorescence intensity (normalized)” value (spores; dye 0.066 mM with nutrients, E3 spores, 0:00:00) was 0.0, the “Fluorescence intensity (normalized)” value (spores; dye 0.066 mM with nutrients, E3 spores, 0:15:00) was 3420.0 and the “Fluorescence intensity (normalized)” value (spores; dye 0.066 mM with nutrients, E3 spores, 0:30:00) was 3716.0. For the same compound, the “Fluorescence intensity (normalized)” value (spores; dye 0.066 mM with nutrients, E3 spores, 0:45:00) was 3902.5, the “Fluorescence intensity (normalized)” value (spores; dye 0.066 mM with nutrients, E3 spores, 1:00:00) was 4000.5 and the “Fluorescence intensity (normalized)” value (spores; dye 0.066 mM with nutrients, E4 spores, 0:00:00) was 0.0. The “Fluorescence intensity (normalized)” value (spores; dye 0.066 mM with nutrients, E4 spores, 0:15:00) was 3261.5, the “Fluorescence intensity (normalized)” value (spores; dye 0.066 mM with nutrients, E4 spores, 0:30:00) was 3464.0 and the “Fluorescence intensity (normalized)” value (spores; dye 0.066 mM with nutrients, E4 spores, 0:45:00) was 3586.5. For the same compound, the “Fluorescence intensity (normalized)” value (spores; dye 0.066 mM with nutrients, E4 spores, 1:00:00) was 3626.5, the “Fluorescence intensity (normalized)” value (spores; dye 0.066 mM with nutrients, E5 spores, 0:00:00) was 0.0 and the “Fluorescence intensity (normalized)” value (spores; dye 0.066 mM with nutrients, E5 spores, 0:15:00) was 3422.5. For the same compound, the “Fluorescence intensity (normalized)” value (spores; dye 0.066 mM with nutrients, E5 spores, 0:30:00) was 3533.0, the “Fluorescence intensity (normalized)” value (spores; dye 0.066 mM with nutrients, E5 spores, 0:45:00) was 3606.0 and the “Fluorescence intensity (normalized)” value (spores; dye 0.066 mM with nutrients, E5 spores, 1:00:00) was 3616.0. The “Fluorescence intensity (normalized)” value (spores; dye 0.066 mM with nutrients, E6 spores, 0:00:00) was 0.0, the “Fluorescence intensity (normalized)” value (spores; dye 0.066 mM with nutrients, E6 spores, 0:15:00) was 13727.5 and the “Fluorescence intensity (normalized)” value (spores; dye 0.066 mM with nutrients, E6 spores, 0:30:00) was 15331.5. For the same compound, the “Fluorescence intensity (normalized)” value (spores; dye 0.066 mM with nutrients, E6 spores, 0:45:00) was 15529.5 and the “Fluorescence intensity (normalized)” value (spores; dye 0.066 mM with nutrients, E6 spores, 1:00:00) was 15629.0.
